Assay [1] has as its target Programmed cell death protein 1/Programmed cell death 1 ligand 1 (Homo sapiens, UniProt Q15116+Q9NZQ7). The assay can be described thus: Inhibition of PD-1/PDL1 (unknown origin) by ELISA. It is filed as protein-complex assay. Background: In an ELISA, binding on a coated surface is turned into a signal by an enzyme label.
A further assay concerns Jurkat. The assay can be described thus: Cytotoxicity against human Jurkat T cells assessed as reduction in cell viability. Type of assay: cell-based.
Assay [2] concerns the target Programmed cell death 1 ligand 1 (Homo sapiens) (UniProt Q9NZQ7).
Description: Binding affinity to human PDL1 (18 to 134 residues) expressed in Escherichia coli BL21 (DE3) cells assessed as melting temperature by differential scanning fluorimetry (Rvb = 35.4 degreec)

Structures are written as SMILES. Where only a bound is given, the exact number is not on record here.

Sequence of Programmed cell death protein 1/Programmed cell death 1 ligand 1 (Q15116 whole entry): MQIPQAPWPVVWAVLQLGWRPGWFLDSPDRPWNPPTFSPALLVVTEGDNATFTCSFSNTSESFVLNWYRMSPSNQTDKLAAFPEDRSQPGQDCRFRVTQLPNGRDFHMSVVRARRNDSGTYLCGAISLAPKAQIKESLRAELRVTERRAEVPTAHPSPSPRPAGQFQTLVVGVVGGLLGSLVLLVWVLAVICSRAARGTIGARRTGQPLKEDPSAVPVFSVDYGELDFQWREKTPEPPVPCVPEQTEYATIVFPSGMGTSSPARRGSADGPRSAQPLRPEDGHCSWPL
Sequence of Programmed cell death protein 1/Programmed cell death 1 ligand 1 (Q9NZQ7 whole entry): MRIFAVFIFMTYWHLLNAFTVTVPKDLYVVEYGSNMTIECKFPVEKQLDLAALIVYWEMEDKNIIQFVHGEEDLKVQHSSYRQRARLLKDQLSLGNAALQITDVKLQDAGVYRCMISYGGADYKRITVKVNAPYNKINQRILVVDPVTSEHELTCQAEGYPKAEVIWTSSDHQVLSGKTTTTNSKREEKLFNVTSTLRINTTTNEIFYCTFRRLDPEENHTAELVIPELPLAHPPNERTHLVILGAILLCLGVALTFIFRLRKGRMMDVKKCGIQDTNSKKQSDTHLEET
Sequence of Programmed cell death 1 ligand 1 (Homo sapiens) (Q9NZQ7 whole entry): as above

In the case of `Cc1c(Nc2nccc3c(CN4CCCCC4C(=O)O)ccnc23)cccc1-c1ccccc1` (stereo not given), in assay [1], the IC50 – broadly, the point on the concentration scale where inhibition reaches its midpoint – was not above 10 nM.

`Cc1cc(CNCCO)ccc1OCc1cccc(-c2cccc(COc3ccc(CNCCO)cc3C)c2C)c1C` came in with an IC50 in assay [1] not above 10 nM. With `Cc1cc(CN[C@H](CO)C(=O)O)c(OCc2cccc(C#N)c2)cc1OCc1cccc(-c2ccc3c(c2)OCCO3)c1C`, in the assay with Jurkat, the IC50 is less than 100 nM. Turning to `COc1nc(OCc2cccc(-c3ccccc3)c2C)ccc1CNCCNC(C)=O`, in assay [2], the Tm amounted to 48.4 °C. The compound `Cc1c(COc2ccc(CN3CCCC[C@H]3C(=O)O)cc2Br)cccc1-c1cccc(COc2ccc(CN3CCCC[C@H]3C(=O)O)cc2Br)c1C` yielded an IC50 in assay [1] not above 10 nM. Regarding `Cc1c(-c2ccccc2)cccc1-c1nc2cc(CNCCO)ccc2o1`, the IC50 in assay [1] is not above 10 nM.

The compound `Cc1cc(C(=O)Nc2cccc(-c3ccccc3)c2C)ncc1CNCCO` came in with an IC50 in assay [1] not above 10 nM.

Consider `Cc1cc(C(=O)Nc2cccc(-c3ccccc3)c2C)ncc1CN1CCCC[C@H]1C(=O)O`, for which, in assay [1], the IC50 was not above 10 nM. Turning to `Cc1c(Nc2nccc3ccc(CNCCO)nc23)cccc1-c1ccccc1`, the half-inhibitory concentration (IC50) in assay [1] was not above 10 nM. Still for that read-out and setting: as for `Cc1c(-c2ccccc2)cccc1-c1nc2cc(CN3CCCC[C@H]3C(=O)O)cc(C)c2o1`, the figure is not above 10 nM.

Values taken from ChEMBL document CHEMBL4715910, “Insights into non-peptide small-molecule inhibitors of the PD-1/PD-L1 interaction: Development and perspective” (Bioorg Med Chem, 2021).
